Test systems include IGROV1 ovarian; M14 melanoma; SNB-19 CNS; ACHN renal; DU-145 prostate; NCI-H226 lung; RPMI-8226 leukemia; U251 CNS; KM12 colon; NCI-H522 lung.
Common to all, as to assay: NCI-60 cell line screen, 48 h

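Each compound was tested at five concentrations against cells in 96-well plates for 48 hours. TGI: concentration producing complete growth inhibition.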

For the compound `O=c1[nH]c(=O)n2n1C1C=CC2CC1`, the TGI in the assay with IGROV1 ovarian, in the assay with M14 melanoma, with SNB-19 CNS, in the assay on ACHN renal, in the assay with DU-145 prostate and in the assay with NCI-H226 lung was over 100 µM each time. In addition, the TGI in the assay on RPMI-8226 leukemia, in the assay with U251 CNS and in the assay with KM12 colon was over 100 µM each time.
On to `CN(C)Cc1cc(C(=O)/C=C/c2ccc(F)cc2)cc(CN(C)C)c1O`, for which the TGI with IGROV1 ovarian is over 100 µM; with NCI-H522 lung it was 31.7 µM; in the assay with M14 melanoma it was 27.4 µM; with SNB-19 CNS, over 100 µM; in the assay on ACHN renal it was 78.3 µM; in the assay with DU-145 prostate it was over 100 µM. In addition, the TGI is over 100 µM in the assay on NCI-H226 lung, over 100 µM in the assay with RPMI-8226 leukemia, over 100 µM with U251 CNS and 48.9 µM with KM12 colon.
`COc1ccc(/C=C2\CN(C)CC3C2=NN(c2ccccc2)C3c2ccc(OC)cc2)cc1` (stereo not drawn): the TGI in the assay on IGROV1 ovarian, in the assay with NCI-H522 lung, in the assay with M14 melanoma, in the assay on SNB-19 CNS, in the assay on ACHN renal and in the assay with DU-145 prostate was over 100 µM throughout. For the same compound, the TGI with NCI-H226 lung, with RPMI-8226 leukemia and in the assay on KM12 colon was over 100 µM in each case.
Take `O=C(CCc1ccc(O)cc1)NCCCNC(=O)CCc1ccc(O)cc1`: the TGI in the assay on IGROV1 ovarian, with NCI-H522 lung, in the assay on M14 melanoma, with SNB-19 CNS, in the assay on ACHN renal and in the assay on DU-145 prostate was over 100 µM each time. Moreover, the TGI in the assay on NCI-H226 lung, in the assay with RPMI-8226 leukemia, with U251 CNS and in the assay on KM12 colon was over 100 µM in each case.
Regarding `Nc1c2c(nc3ccccc13)CCCc1ccccc1-2`, the TGI is 26.3 µM in the assay on IGROV1 ovarian; 37.2 µM in the assay with NCI-H522 lung; 21.6 µM in the assay with M14 melanoma; 52.9 µM in the assay with SNB-19 CNS; 23 µM with ACHN renal; 80.3 µM with DU-145 prostate. In addition, the TGI was 45.4 µM in the assay on NCI-H226 lung, 30.4 µM in the assay on RPMI-8226 leukemia, 24.7 µM in the assay on U251 CNS and 31.2 µM in the assay with KM12 colon.
Consider `Cc1ccc(S(=O)(=O)N2CCCSCCN(S(=O)(=O)c3ccc(C)cc3)CCCSCC2)cc1`, for which the TGI with IGROV1 ovarian, with M14 melanoma, in the assay with SNB-19 CNS, in the assay with ACHN renal, in the assay with DU-145 prostate and in the assay on NCI-H226 lung was over 100 µM in each case. The TGI in the assay with RPMI-8226 leukemia, in the assay on U251 CNS and in the assay on KM12 colon was over 100 µM in each case.
With `CC(=O)OC(=C(C#N)C#N)c1nccnc1C(C)=O`, the TGI in the assay on IGROV1 ovarian was over 20 µM; in the assay with NCI-H522 lung, over 20 µM; in the assay with M14 melanoma it was 11.8 µM; in the assay with SNB-19 CNS, over 20 µM; in the assay on ACHN renal it was over 20 µM; in the assay on DU-145 prostate, over 20 µM. In addition, the TGI in the assay with NCI-H226 lung was 13.7 µM; in the assay on U251 CNS, over 20 µM; in the assay with KM12 colon, 14 µM.
With `COc1ccc(-c2nc3cc(C(F)(F)F)ccc3n2CC2CCCN3CCCCC23)cc1` (stereo not drawn), the TGI in the assay on IGROV1 ovarian came out at 26.9 µM; with NCI-H522 lung it was 29.2 µM; in the assay on M14 melanoma, 25.6 µM; in the assay on ACHN renal, 29 µM; in the assay on DU-145 prostate, 30.8 µM; in the assay with NCI-H226 lung, 32.3 µM. The TGI with RPMI-8226 leukemia turned out to be 28.4 µM; in the assay on U251 CNS, 30.7 µM; in the assay with KM12 colon, 45.2 µM.
Consider `Cc1ccc(NC(=O)/C(=N\NC(N)=O)c2c(O)c3ccccc3[nH]c2=O)cc1`, for which the TGI in the assay on M14 melanoma, in the assay on SNB-19 CNS, with ACHN renal, with DU-145 prostate, with NCI-H226 lung and in the assay on RPMI-8226 leukemia was over 100 µM throughout. Besides, the TGI in the assay with U251 CNS and with KM12 colon was over 100 µM throughout.
Regarding `O=[p+]1c2ccccc2[nH]c2ccccc21`, the TGI in the assay with IGROV1 ovarian, in the assay with NCI-H522 lung, with M14 melanoma, in the assay on SNB-19 CNS, in the assay with ACHN renal and in the assay on DU-145 prostate was over 100 µM each time. For the same compound, the TGI with NCI-H226 lung, in the assay with U251 CNS and in the assay with KM12 colon was over 100 µM throughout.
For `CCOC(=O)c1cn2c(ccc3sc4ccccc4c(=O)c32)n1`, the TGI in the assay on IGROV1 ovarian, in the assay on NCI-H522 lung, with SNB-19 CNS, in the assay on ACHN renal, in the assay with DU-145 prostate and in the assay on NCI-H226 lung was over 100 µM throughout. The TGI in the assay with RPMI-8226 leukemia, with U251 CNS and with KM12 colon was over 100 µM in each case.
Take `Cc1ccc(C)c(COCCOCn2c(=O)[nH]c(=O)c3cc(Br)ccc32)c1`: the TGI in the assay on IGROV1 ovarian, in the assay on NCI-H522 lung, in the assay with M14 melanoma, in the assay on SNB-19 CNS, with ACHN renal and in the assay with DU-145 prostate was over 100 µM each time. Further, the TGI with NCI-H226 lung, in the assay on U251 CNS and with KM12 colon was over 100 µM each time.
For the compound `O=P1(Oc2ccccc2)NCc2ncccc2O1` (stereo not drawn), the TGI in the assay on IGROV1 ovarian, in the assay on M14 melanoma, in the assay on SNB-19 CNS, in the assay with ACHN renal, in the assay with DU-145 prostate and in the assay on NCI-H226 lung was over 100 µM each time. Further, the TGI in the assay with RPMI-8226 leukemia, in the assay on U251 CNS and in the assay with KM12 colon was over 100 µM throughout.
`Cc1cc(=O)c2ccccc2n1CCCCCCCCCCn1c(C)cc(=O)c2ccccc21`: the TGI is 43.8 µM in the assay on IGROV1 ovarian; 32.9 µM in the assay with NCI-H522 lung; over 100 µM in the assay with M14 melanoma; over 100 µM in the assay with SNB-19 CNS; over 100 µM in the assay on ACHN renal; 41.9 µM in the assay with DU-145 prostate. In addition, the TGI came out at 46.1 µM with NCI-H226 lung, 29 µM in the assay on U251 CNS and 29.4 µM with KM12 colon.

The record behind these values is PubChem BioAssay (NCI).
